Laboratory results as given in patent publication US20210330611A1, “THERAPY FOR NEUROLOGICAL DISEASES/DISORDERS” (priority 2020, published 2021).
Counter-ions that a name gives are not always drawn. Like-named read-outs stand apart in the source and are kept apart here.

Key:
[1] = system: fibrin- and LPS-induced microglia activation; experiment: cells; type: cell-based, rat; conditions: for inhibition at 10 µM: Rattus norvegicus
[2] = system: primary rat microglia; experiment: Cell toxicity (dead cells, size <150 μm2) in coated fibrin (cFib) assay; conditions: primary microglia HTS, fibrin stimulation; decreased size (<150 μm^2) as marker of toxicity;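 for Fibrin % cell toxicity: share of dead cells sized under 150 µm2 at 10 µM in fibrin-stimulated microglia HTS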
[3] = system: fibrin-induced microglia activation; experiment: Image-based assay of fibrin-induced microglia activation (HTS and dose response); type: cell-based, rat; conditions: for IC50 / inhibition at 10 µM: Rattus norvegicus, Microglia; for inhibition at 10 µM: primary microglia HTS, fibrin stimulation, increased cell size (>800 μm^2) as marker of activation, read-out: Fibrin % inhibition
[4] = in vitro; conditions: rat, Cell Toxicity IC50 (uM) [cFib assay]
[5] = system: LPS-induced microglia activation; experiment: Image-based assay of LPS-induced microglia activation (HTS and dose response); type: cell-based, rat; conditions: Rattus norvegicus, Microglia; for inhibition at 10 µM: primary microglia HTS, LPS stimulation, increased cell size (>800 μm^2) as marker of activation, read-out: LPS % inhibition
[6] = in vitro; conditions: rat
[7] = system: primary rat microglia; experiment: Cell toxicity (dead cells, size <150 μm2) in LPS assay; conditions: for LPS % cell toxicity: primary microglia HTS, LPS stimulation, decreased size (<150 μm^2) as marker of toxicity; for IC50: read-out: Cell Toxicity IC50 (uM) [LPS assay], LPS assay
[8] = HTS of 1907 compounds, quadrant by fibrin and LPS inhibition
[9] = Microglia, HTS hit classification, read-out: Hit
[10] = hit classification in microglia HTS, read-out: Cherry-picked Hit (Suppl. Table 7)
[11] = quadrant by fibrin and LPS inhibition in HTS of 1907 compounds
[12] = 48 h, Table 1, dose response 0.001-20 μM, triplicates, primary rat microglia, 48 h, read-out: Fibrin IC50
[13] = dose response, fibrin-induced microglia activation, read-out: Fibrin IC50
[14] = fibrin-induced microglia activation, dose response, read-out: Fibrin IC50 (uM) (Suppl. Table 7)
[15] = 48 h, Table 1, dose response 0.001-20 μM, triplicates, primary rat microglia, 48 h, read-out: LPS IC50
[16] = LPS-induced microglia activation, dose response, read-out: LPS IC50 (uM) (Suppl. Table 7)
[17] = dose response, LPS-induced microglia activation, read-out: LPS IC50
[18] = Microglia, Table 3, read-out: Cherry-picked Hit (Suppl. Table 7)
[19] = Table 3, read-out: Fibrin IC50 (uM) (Suppl. Table 7)
[20] = Table 3, read-out: LPS IC50 (uM) (Suppl. Table 7)

SMILES	Quadrant (FIG. 5b) [1, 8]	inhibition at 10 µM [1, 9] [%]	inhibition at 10 µM [1, 10] [%]	Quadrant (FIG. 5b) ([1]; Table 1, screen at 10 μM)	Quadrant (FIG. 5b) [1, 11]	Fibrin % cell toxicity [2] [%]	IC50 [3, 12] [µM]	IC50 [3, 13] [µM]	IC50 [3, 14] [µM]	inhibition at 10 µM [3] [%]	IC50 ([4]; cFib assay) [µM]	IC50 [5, 15] [µM]	inhibition at 10 µM ([5]; 48 h) [%]	IC50 [5, 16] [µM]	IC50 [5, 17] [µM]	IC50 [6] [µM]	LPS % cell toxicity [7] [%]	inhibition at 10 µM [1, 18] [%]	Quadrant (FIG. 5b) ([1]; Table 3, screen at 10 μM)	Fibrin Selectivity [3]	other results
COc1c(C)c2c(c(O)c1C/C=C(\C)CCC(=O)O)C(=O)OC2 [Mycophenolic acid, reference compound]	Q2	> 50	> 50	Q2	Q2	1	1	1	1	94	> 20	1	91	1	1	> 20	2	–	–	–	Quadrant (FIG. 5b) ([1]; Table 2, screen at 10 μM): Q2; Activity ([1]; Table 7, fib = fibrin, LPS, tox = toxicity): fib/LPS
S=C=NCc1ccccc1 [Benzyl isothiocyanate, reference compound]	Q2	> 50	–	Q2	Q2	2	10	10	10	77	> 20	> 20	68	> 20	> 20	> 20	2	> 50	Q2	2	Fibrin Selectivity (LOG10) [3]: 0.29; IC50 [3, 19]: 10 µM; IC50 ([4]; Table 3): > 20 µM; IC50 [5, 20]: > 20 µM; IC50 [7]: > 20 µM
O=C(OOC(=O)c1ccccc1)c1ccccc1 [Benzoyl peroxide, reference compound]	Q2	> 50	> 50	Q2	Q2	1	20	20	20	75	> 20	> 20	82	> 20	> 20	> 20	2	–	–	–	–
Clc1ccc(C(OCCN2CCCCC2)c2ccccc2)cc1 (centres unmarked) [Cloperastine hydrochloride, reference compound]	Q3	> 50	> 50	Q3	Q3	2	7	7	7	64	> 20	9	44	9	9	> 20	0	–	–	–	–
CC(=O)OCC(=O)[C@@]12N=C(C)O[C@@H]1C[C@H]1[C@@H]3CCC4=CC(=O)C=C[C@]4(C)[C@H]3[C@@H](O)C[C@@]12C [Deflazacort, reference compound]	Q2	> 50	–	Q2	Q2	2	< 0.001	< 0.001	< 0.001	111	20	0.04	105	0.04	0.04	> 20	4	> 50	Q2	42	Quadrant (FIG. 5b) ([1]; microglia HTS, Table 6): Q2; Fibrin Selectivity (LOG10) [3]: 1.63; IC50 [3, 19]: < 0.001 µM; IC50 ([3]; Table 6, read-out: Fibrin IC50 (uM) (Suppl. Table 7)): < 0.001 µM; Fibrin Selectivity (LOG10) ([3]; fibrin vs LPS, LOG10, Table 6): 1.63; Fibrin Selectivity ([3]; fibrin vs LPS, Table 6): 42; IC50 ([4]; Table 3): 20 µM; IC50 ([4]; cFib assay, Table 6): ≥ 20 µM; IC50 [5, 20]: 0.04 µM; IC50 ([5]; Table 6, read-out: LPS IC50 (uM) (Suppl. Table 7)): 0.04 µM; IC50 [7]: > 20 µM; IC50 ([7]; Table 6): > 20 µM
c1ccc2[nH]c(-c3cscn3)nc2c1 [Thiabendazole, reference compound]	Q2	> 50	> 50	Q2	Q2	1	> 20	> 20	> 20	58	> 20	> 20	62	> 20	> 20	> 20	1	–	–	–	–
OCc1ccccc1O[C@@H]1O[C@H](CO)[C@@H](O)[C@H](O)[C@H]1O [Salicin, reference compound]	Q2	> 50	> 50	Q2	Q2	1	> 20	> 20	> 20	76	> 20	> 20	61	> 20	> 20	> 20	1	–	–	–	–
Nc1ccc(S(=O)(=O)Nc2cnc3ccccc3n2)cc1 [Sulfaquinoxaline sodium, reference compound]	Q2	> 50	> 50	Q2	Q2	3	> 20	> 20	> 20	106	> 20	> 20	104	> 20	> 20	> 20	3	–	–	–	–
CC(C)C(=O)c1c(C(C)C)nn2ccccc12 [Ibudilast, reference compound]	Q2	> 50	> 50	Q2	Q2	1	> 20	> 20	> 20	75	> 20	> 20	57	> 20	> 20	> 20	1	–	–	–	–
COc1ccc(-n2nc(CCC(=O)N(C)O)cc2-c2ccc(Cl)cc2)cc1 [Tepoxalin, reference compound]	Q2	> 50	–	Q2	Q2	1	3	3	3	76	> 20	18	66	18	18	> 20	2	> 50	Q2	6	Fibrin Selectivity (LOG10) [3]: 0.75; IC50 [3, 19]: 3 µM; IC50 ([4]; Table 3): > 20 µM; IC50 [5, 20]: 18 µM; IC50 [7]: > 20 µM
CN(C)[C@@H]1C(O)=C(C(N)=O)C(=O)[C@@]2(O)C(O)=C3C(=O)c4c(O)ccc(Cl)c4[C@@H](O)[C@H]3C[C@@H]12 [Demeclocycline hydrochloride, reference compound]	Q3	> 50	–	Q3	Q3	1	6	6	6	75	> 20	15	31	15	15	> 20	1	> 50	Q3	2	Fibrin Selectivity (LOG10) [3]: 0.38; IC50 [3, 19]: 6 µM; IC50 ([4]; Table 3): > 20 µM; IC50 [5, 20]: 15 µM; IC50 [7]: > 20 µM
